{
  "source": "patent US11058700B2",
  "about": "“Macrocyclic lactones and uses thereof as modulators of purinergic receptors” (City of Hope, priority 2015, dated 2021)",
  "key": {"[1]": {"molecular_target": "T1, P2X4/P2X7/Pannexin-1 channels (Mus musculus, UniProt Q9JJX6)", "T1 construct": "endogenous in cells; host or cells: 4T1.2 mouse breast cancer cells", "T1 sequence (Q9JJX6 1-388)": "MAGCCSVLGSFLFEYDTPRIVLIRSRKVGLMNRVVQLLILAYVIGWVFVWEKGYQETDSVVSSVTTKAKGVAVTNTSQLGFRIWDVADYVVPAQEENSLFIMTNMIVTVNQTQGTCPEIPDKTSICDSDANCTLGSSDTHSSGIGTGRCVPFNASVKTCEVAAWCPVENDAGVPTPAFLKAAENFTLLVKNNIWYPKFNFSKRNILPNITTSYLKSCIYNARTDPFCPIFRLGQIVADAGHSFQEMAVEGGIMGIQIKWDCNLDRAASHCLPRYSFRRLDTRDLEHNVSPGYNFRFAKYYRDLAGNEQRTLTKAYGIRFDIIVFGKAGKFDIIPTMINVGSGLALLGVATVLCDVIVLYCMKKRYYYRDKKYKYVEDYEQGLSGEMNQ", "experiment": "Membrane permeabilization to YOPRO-1", "format": "cell-based", "conditions": "4T1.2 cells, Ivermectin 0.5-32 μM, ATP 0.3-3 mM, 30 min", "description": "FIGS. 3A-3G. Dual roles of ATP and purinergic signaling in Ivermectin's killing. FIG. 3A: Depletion of extracellular ATP with Apyrase (2500 μunits/ml) exacerbates killing of 4T1.2 cell by Ivermectin. FIG. 3B: Extracellular Ca^2− and ATP contain Ivermectin-induced cell swelling. 4T1.2 cells were treated with 32 μM Ivermectin for 4 h in the presence of 1 mM EDTA or 2500 μunits/ml Apyrase. FIG. 3C: Ivermectin (0.5-32 μM) and high concentrations of extracellular ATP (0.3-3 mM) synergistically open pannexin-1 channels and permeabilize the membrane on live cells (7AAD-positive dead cells were gated out). 4T1.2 cells were treated for 30 min as indicated in the presence of 7 AAD and 5 μM YOPRO-1. FIG. 3D: Analysis of supernatants from Ivermectin-treated murine and human TNBC cells showing rapid release of ATP followed by its transient depletion. Depletion of extracellular ATP with Apyrase (2500 μunits/ml) was used as a positive control. FIG. 3E: Analysis of membrane-proximal ATP levels using cancer cells engineered to express a membrane-bound Luciferase. […] FIG. 3G: The P2X7-specific inhibitor KN-62 (1-10 μM) blocks Ivermectin cytotoxicity (IVM 8-32 μM, 4-48 h treatments). Asterisk (*) indicates p<0.05 relative to untreated or Ivermectin alone controls, respectively.\nFIGS. 10A-10L. Extracellular Dual roles of ATP and purinergic signaling in Ivermectin's killing. 4T1.2 cells were treated with Ivermectin for 4 h in the presence of different inhibitors at μM concentrations as indicated. FIG. 10A: The non-specific P2 purinergic receptor inhibitor Suramin (4-400 μM) exacerbates Ivermectin-induced cell death. FIG. 10B: Inhibition of extracellular ATPases with PSB 069 protects against Ivermectin cytotoxicity. FIG. 10C: Blockade of pannexin-1 channels with Panx-1 mimetic blocking peptide (Anaspec) and Probenecid at μM concentrations as indicated exacerbates killing. […] FIG. 10E: ATP plays a transiently protective role only in the mouse but not human breast cancer cells. 4T1.2 and MDA-MB-231 cells were treated with 32 μM Ivermectin for 4 h in the presence of ATP at mM concentrations as indicated. FIG. 10F: qPCR showing up-regulation of P2X4 and P2X7 receptors on several murine cancer cell lines, including 4T1.2 and DD-Her2/neu (breast), and B16 (melanoma). […] Expression of P2X and P2Y purinergic receptors, NOX family members, GABA, and Glycine receptors was analyzed using publicly available breast cancer cell lines datasets. Statistically significant (p<0.05) up-regulation and down-regulation in breast cancer versus normal cells is shown in red and blue, respectively. FIG. 10H: Correlation between sensitivity to Ivermectin and ATP across various human cancer cell lines. Cancer cells were treated for 24 h with 3 mM ATP or Ivermectin at 16 and 32 μM doses as indicated. […]"}, "4T1.2 cells": {"tested_on": "4T1.2 cells", "experiment": "Mitochondrial membrane potential (JC-1)", "format": "cell-based, mouse", "description": "FIGS. 4A-4D. Excessive Ca^2+/CaMKII signaling and MPTP contribute to cell death. FIG. 4A: Kinetics of cytosolic Ca^2+ increase in 4T1.2 cells treated with Ivermectin. […] 4T1.2 cells were treated for 4 h with 32 μM Ivermectin in the presence of the P2X7/CaMKII dual inhibitor KN-62 or the CaMKII-specific inhibitor KN-63, at μM concentrations as indicated. FIG. 4C: Flow cytometry analysis of JC-1 loaded 4T1.2 cells showing that high doses of Ivermectin result in a sudden mitochondrial de-polarization, while lower doses cause similar effects but after transient hyper-polarization. FIG. 4D: MPTP contributes to Ivermectin. 4T1.2 cells were treated for 4 h with 32 μM Ivermectin in the presence of the MPTP inhibitor Cyclosporin A at μM concentrations as indicated. Asterisk (*) indicates p<0.05 relative to untreated or Ivermectin alone controls, respectively.\nMitochondrial membrane potential. Cancer cells in suspension were washed with PBS and loaded with 2 μM JC-1 (Life Technologies, T3168) for 15 min at room temperature in the dark. Cells were washed twice with PBS and treated with various doses of Ivermectin in R10 medium. Cells were incubated for 1 h/4 h in 5 ml FACS tubes at 37° C. and 5% CO2. After 1h/4h of treatment cells were analyzed by flow cytometry. Mitochondrial polarization was evaluated by measuring the corresponding changes in fluorescence in the FITC and PE channels. […]"}},
  "data": [
    {"smiles": "CC[C@H](C)[C@H]1O[C@]2(CC[C@@H]1C)C[C@@H]1C[C@@H](C/C=C(\\C)[C@@H](O[C@H]3C[C@H](OC)[C@@H](O[C@H]4C[C@H](OC)[C@@H](O)[C@H](C)O4)[C@H](C)O3)[C@@H](C)/C=C/C=C3\\CO[C@@H]4[C@H](O)C(C)=C[C@@H](C(=O)O1)[C@]34O)O2", "note": "[Ivermectin]", "values": [
      {"measurement": "opening of channels / permeabilization to YOPRO-1 with ATP", "setting": "[1]", "result": "synergized with ATP in opening P2X4/P2X7/Pannexin-1 channels"},
      {"measurement": "mitochondrial polarization", "setting": "4T1.2 cells; high doses of Ivermectin, massive cell death", "result": "sudden depolarization of mitochondria"},
      {"measurement": "mitochondrial polarization", "setting": "4T1.2 cells; lower doses of Ivermectin", "result": "mitochondrial hyperpolarization"}
    ]}
  ]
}
